Measurements published in paper PMC9750872, “Ras-mutant cancers are sensitive to small molecule inhibition of V-type ATPases in mice” (Nature biotechnology, 2022).
“Also recorded” adds a separate entry of the source.

Tests used:
[1] = system: V-ATPase-dependent proton transport in HEK293T cells; test: Proton pumping assay, FITC-Dextran-loaded lysosomes; assay type: cell-based, human; conditions: 1 h treatment
Excerpt: Figure 4. […] (A) Model of the reversible assembly of V-ATPase. Cytosolic V1 subunits are depicted in blue and membrane Vo subunits in purple. Upon V-ATPase assembly, ATP is hydrolyzed to ADP accompanied by proton (H^+) pumping and luminal acidification (decrease in pH) (Created with BioRender). […] The amount of subunit B2 present in the membrane fraction indicates the amount of assembled V-ATPase. A representative Western blot is presented. […] Cells were mechanically lysed, and a fraction containing FITC-Dextran-loaded lysosomes was isolated by sedimentation centrifugation. Fluorescence was measured over time to assess pH-dependent quenching following addition of 1 mM magnesium-ATP (predetermined). […] Representative of 5 individual experiments with n = 3 for each is presented (mean ± SD) (D) Mammalian V-ATPase activity measured in the absence and presence of 1 μM 249C and 1 μM BafA1. Data shown are mean ± SD; n = 3. […]
4 × 10^6 HEK 293T cells were plated in 10-cm plates. […] Sample fluorescence was excited at 490 nm, and emission fluorescence at 520 nm was measured continuously in BioTek plate reader (Synergy) using Gen5 software (version 3.05). After initial fluorescence stabilization, 1 mM ATP and 2 mM MgCl2 were added to initiate ATPase activity and proton pumping into the lysosomes, which causes quenching of FITC in the lysosomal lumen. […]

[2] = system: SW48 KRASG12D/+ xenografts; test: SW48 isogenic colon xenograft; assay type: in vivo, mouse; conditions: 10 mg/kg i.p., 14 days of treatment
Excerpt: (§1) To explore the relationship between individual KRAS mutants and 249C sensitivity in vivo, we used a colon cancer (SW48) xenograft model with a set of colon cancer cell lines which differ in KRAS mutation status but are otherwise genetically matched. Stable derivatives of the SW48 cell line were derived by introducing a KRASG12D, KRASG12V or KRASG13D point mutation via rrAV gene editing technology previously reported. To compare KRAS mutants in a cancer-relevant system, four cell lines: (SW48, SW48 KRASG12D/+, SW48 KRASG12V/+ and SW48 KRASG13D/+) were injected into athymic mice and 14 days of treatment (10 mg/kg 249C or vehicle control, i.p., n = 5 for all arms) was started when the average tumor volume reached approximately 100–200 mm^3 following random segregation into groups. As before, KRASG13D tumors were most sensitive to 249C both in vitro and in vivo (Fig. 6d–e). […] Changes in tumor volume are presented for animals bearing isogenic SW48 cells: parental/KRASWT (Fig. 6f), KRASG12D/+ (Fig. 6g), KRASG12V/+, (Fig. 6h), KRASG13D/+ (Fig. 6i). Note that SW48 tumors with different KRAS variants show different basal growth rates, as reported previously. […] Further, no significant changes in body weight of the mice were observed during the study (Fig. 6j).
(§2) For cell line xenografts, 6 × 10^6 SW48 cells were subcutaneously injected into the flanks of 6–8-week old athymic nude female mice (Taconic model # NCRNU-F, CrTac:NCR-Foxn1 sp/sp) and tumor growth was monitored with caliper measurement. Once the mean tumor reached a certain volume (between 100–200 mm^3), animals were randomized into different treatment groups of 5 animals per group. 249C for in vivo use was formulated in 0.5% Methylcellulose and dosed i.p. (10 mg/kg, for 2 weeks). Antitumor activity was determined by calculating the treatment over control (T/C) tumor volume ratio at the end of the study. Either at the end of each study, of if any animal reached a humane endpoint, animals were euthanized with CO2 followed by cervical dislocation or another secondary method of euthanasia approved by the IACUC protocol. Mouse manipulations were performed in accordance with UCSF’s IACUC protocol AN179973.Mice were housed in the UCSF Animal Care Facility LARC at the Helen Diller Family Cancer Center at UCSF Mission Bay. Mice were housed in a specific-pathogen free individual suite. They are housed up to 5 per cage in ventilator cages, with ad libitum food and water on a 12-hour light cycle and controlled temperature and humidity conditions (67–74°F and 30–70%).

[3] = system: SW48 KRASG12V/+ xenografts; test: SW48 isogenic colon xenograft; assay type: in vivo, mouse; conditions: 10 mg/kg i.p., 14 days of treatment
Excerpt: as §1, §2

[4] = system: SW48 KRASG13D/+ xenografts; test: SW48 isogenic colon xenograft; assay type: in vivo, mouse; conditions: 10 mg/kg i.p., 14 days of treatment
Excerpt: as §1, §2

[5] = system: SW48 parental (KRAS WT) xenografts; test: SW48 isogenic colon xenograft; assay type: in vivo, mouse; conditions: 10 mg/kg i.p., 14 days of treatment
Excerpt: as §1, §2

CN1CCOC(CNC(=O)C2(C)C(c3ccc(Cl)o3)C(c3ccc(F)cc3F)=NN2c2ccc(F)cc2F)C1 (centres unmarked) [Compound 249C]
V-ATPase-dependent proton transport (ATP-dependent fluorescence quenching) [1]: inhibited V-ATPase-dependent proton transport; also recorded: ATP-dependent fluorescence quenching was not observed
Treatment/Control on Day 21 [2]: 75%
Tumor Growth Inhibition (TGI) on Day 21 [2]: 25%
Treatment/Control on Day 21 [3]: 55%
Tumor Growth Inhibition (TGI) on Day 21 [3]: 45%
Treatment/Control on Day 21 [4]: 18%
Tumor Growth Inhibition (TGI) on Day 21 [4]: 82%
Tumor Growth Inhibition (TGI) on Day 21 [5]: 0%
